Laboratory results as given in patent US9580416B2, “Inhibitors of Bruton's tyrosine kinase” (PHARMACYCLICS LLC, priority 2014, dated 2017).

Assays:
Assay type in all cases: biochemical
Lck = Lck (Homo sapiens, UniProt P06239); assay: Lck kinase activity, TR-FRET assay; settings: read-out: LCK (IC50)
Summary of the method: (§1)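 Enzyme (Btk 0.5 nM; Lck 6 nM) reacted 1 h with inhibitor, ATP at Km and biotin-peptide substrate in pH 7.4 buffer, 10% DMSO. Phosphopeptide detected by Eu-p-Tyr100 antibody plus streptavidin-APC (665/615 nm). IC50 calculated from fitted Ki(app) via ATP/Km correction plus half total enzyme.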

JAK3 = molecular target: T1, JAK3 (Homo sapiens, UniProt P52333); assay: Inhibition of a panel of kinases, in vitro HotSpot kinase assay: JAK3
T1 sequence (P52333 1-1124): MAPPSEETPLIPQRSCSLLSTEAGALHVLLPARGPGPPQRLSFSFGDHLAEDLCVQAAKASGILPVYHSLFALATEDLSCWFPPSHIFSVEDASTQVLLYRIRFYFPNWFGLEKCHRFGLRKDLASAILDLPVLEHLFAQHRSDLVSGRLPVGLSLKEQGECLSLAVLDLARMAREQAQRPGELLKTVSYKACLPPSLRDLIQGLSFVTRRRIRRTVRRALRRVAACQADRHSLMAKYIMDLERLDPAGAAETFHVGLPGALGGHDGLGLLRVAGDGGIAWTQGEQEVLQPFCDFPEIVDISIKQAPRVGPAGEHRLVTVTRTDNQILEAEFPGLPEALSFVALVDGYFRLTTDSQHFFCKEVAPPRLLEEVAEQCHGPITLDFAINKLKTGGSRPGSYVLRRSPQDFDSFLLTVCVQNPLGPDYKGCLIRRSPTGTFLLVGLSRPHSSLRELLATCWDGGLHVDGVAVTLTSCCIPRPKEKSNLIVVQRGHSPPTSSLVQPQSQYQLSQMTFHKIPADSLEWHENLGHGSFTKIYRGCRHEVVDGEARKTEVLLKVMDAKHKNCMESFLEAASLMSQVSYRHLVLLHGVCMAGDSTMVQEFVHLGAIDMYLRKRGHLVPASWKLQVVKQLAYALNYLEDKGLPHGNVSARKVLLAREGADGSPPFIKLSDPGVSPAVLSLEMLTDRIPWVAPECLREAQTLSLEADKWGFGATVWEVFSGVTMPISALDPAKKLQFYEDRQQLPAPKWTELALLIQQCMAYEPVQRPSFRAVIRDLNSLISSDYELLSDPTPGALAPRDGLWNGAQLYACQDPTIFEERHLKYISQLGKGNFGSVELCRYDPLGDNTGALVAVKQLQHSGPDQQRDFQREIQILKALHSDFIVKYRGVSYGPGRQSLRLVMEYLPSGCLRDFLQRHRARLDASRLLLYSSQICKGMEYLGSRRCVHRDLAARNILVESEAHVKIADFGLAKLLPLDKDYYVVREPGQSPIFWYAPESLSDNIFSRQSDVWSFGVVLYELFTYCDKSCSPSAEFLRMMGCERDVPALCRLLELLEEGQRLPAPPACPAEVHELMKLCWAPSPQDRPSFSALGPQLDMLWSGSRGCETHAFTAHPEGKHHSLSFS
Description: (§2) The degree of inhibition of a panel of kinases is determined using the in vitro HotSpot kinase assay (purified enzymes, ^33P-ATP, an appropriate substrate and 1 uM ATP).

Btk = Btk (Homo sapiens, UniProt Q06187); assay: Btk kinase activity, TR-FRET assay; settings: read-out: Btk (IC50)
Summary of the method: as §1

EGFR = EGFR (Homo sapiens, UniProt P00533); assay: Inhibition of a panel of kinases, in vitro HotSpot kinase assay: EGFR
Description: as §2

EGFR, sequence (P00533 25-1210): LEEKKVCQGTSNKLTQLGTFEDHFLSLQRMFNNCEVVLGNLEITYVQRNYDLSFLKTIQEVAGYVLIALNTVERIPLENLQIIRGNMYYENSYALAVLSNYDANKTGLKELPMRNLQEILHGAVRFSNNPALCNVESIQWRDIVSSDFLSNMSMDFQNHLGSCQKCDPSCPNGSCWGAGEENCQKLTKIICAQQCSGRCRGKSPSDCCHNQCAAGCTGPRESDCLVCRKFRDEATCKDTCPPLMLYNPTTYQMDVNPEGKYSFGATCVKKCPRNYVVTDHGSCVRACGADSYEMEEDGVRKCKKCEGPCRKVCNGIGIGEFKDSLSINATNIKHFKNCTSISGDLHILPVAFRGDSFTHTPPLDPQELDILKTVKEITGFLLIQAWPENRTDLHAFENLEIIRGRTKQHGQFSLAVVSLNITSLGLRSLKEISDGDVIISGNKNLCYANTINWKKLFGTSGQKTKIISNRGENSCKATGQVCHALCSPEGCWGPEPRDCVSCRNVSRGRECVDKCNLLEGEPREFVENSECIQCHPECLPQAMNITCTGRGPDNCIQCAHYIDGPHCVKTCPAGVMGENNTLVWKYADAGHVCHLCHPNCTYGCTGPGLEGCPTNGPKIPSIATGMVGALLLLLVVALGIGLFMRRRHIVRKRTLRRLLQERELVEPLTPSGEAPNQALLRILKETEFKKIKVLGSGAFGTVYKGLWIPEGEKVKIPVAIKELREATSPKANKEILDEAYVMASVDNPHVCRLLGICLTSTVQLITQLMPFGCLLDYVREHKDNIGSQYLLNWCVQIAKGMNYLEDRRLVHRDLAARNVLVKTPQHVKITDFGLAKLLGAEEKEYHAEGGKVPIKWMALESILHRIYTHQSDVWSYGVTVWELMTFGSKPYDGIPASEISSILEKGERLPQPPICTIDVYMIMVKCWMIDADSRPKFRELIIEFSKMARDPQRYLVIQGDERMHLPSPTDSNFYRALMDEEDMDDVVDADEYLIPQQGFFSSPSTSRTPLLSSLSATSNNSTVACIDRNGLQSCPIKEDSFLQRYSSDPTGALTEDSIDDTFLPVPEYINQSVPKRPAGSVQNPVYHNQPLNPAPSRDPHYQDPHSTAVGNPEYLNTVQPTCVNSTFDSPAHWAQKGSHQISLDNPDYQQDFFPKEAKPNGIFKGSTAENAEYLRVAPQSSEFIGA
Lck, sequence (P06239 whole entry, species assumed): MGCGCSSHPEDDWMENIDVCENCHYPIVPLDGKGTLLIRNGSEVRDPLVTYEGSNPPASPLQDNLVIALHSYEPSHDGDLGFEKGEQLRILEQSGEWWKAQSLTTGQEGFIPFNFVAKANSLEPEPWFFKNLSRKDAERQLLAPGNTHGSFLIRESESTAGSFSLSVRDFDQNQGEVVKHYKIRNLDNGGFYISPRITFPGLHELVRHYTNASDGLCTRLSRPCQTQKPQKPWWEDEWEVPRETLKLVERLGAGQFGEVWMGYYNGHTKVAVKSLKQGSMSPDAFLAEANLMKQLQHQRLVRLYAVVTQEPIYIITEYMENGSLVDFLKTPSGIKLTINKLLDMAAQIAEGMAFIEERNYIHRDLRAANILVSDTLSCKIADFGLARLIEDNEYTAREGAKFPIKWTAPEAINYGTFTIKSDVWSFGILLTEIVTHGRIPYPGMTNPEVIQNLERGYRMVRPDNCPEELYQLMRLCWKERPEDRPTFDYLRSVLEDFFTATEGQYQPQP
Btk, sequence (Q06187 whole entry): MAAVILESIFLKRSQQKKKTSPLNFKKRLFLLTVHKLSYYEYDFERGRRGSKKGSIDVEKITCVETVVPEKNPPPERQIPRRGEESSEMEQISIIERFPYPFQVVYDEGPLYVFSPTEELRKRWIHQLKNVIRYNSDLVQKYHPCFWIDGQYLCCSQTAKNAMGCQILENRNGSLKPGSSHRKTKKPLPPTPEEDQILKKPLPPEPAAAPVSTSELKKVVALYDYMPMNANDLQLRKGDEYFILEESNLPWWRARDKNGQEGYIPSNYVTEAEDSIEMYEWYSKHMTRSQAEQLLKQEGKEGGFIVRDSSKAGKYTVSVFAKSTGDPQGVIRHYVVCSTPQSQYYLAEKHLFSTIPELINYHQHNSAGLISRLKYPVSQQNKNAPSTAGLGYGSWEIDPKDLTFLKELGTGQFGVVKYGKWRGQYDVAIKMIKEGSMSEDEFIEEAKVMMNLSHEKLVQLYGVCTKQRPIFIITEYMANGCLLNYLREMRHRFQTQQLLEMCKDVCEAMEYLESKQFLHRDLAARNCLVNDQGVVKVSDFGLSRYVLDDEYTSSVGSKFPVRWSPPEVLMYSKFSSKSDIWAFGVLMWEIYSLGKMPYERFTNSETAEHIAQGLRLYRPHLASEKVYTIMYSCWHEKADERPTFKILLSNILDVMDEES

Row | Structure (SMILES) | IC50 (Lck) [µM] | IC50 (JAK3) [µM] | IC50 (Btk) [µM] | IC50 (EGFR) [µM]
1 | COc1ccc(C(=O)N2CCC[C@@H](Nc3n[nH]c4nccc(Oc5ccc(C(=O)Nc6cc(C)ccn6)cc5)c34)C2)cc1 [compound 246, (R)-4-(3-(1-(4-methoxybenzoyl)piperidin-3-ylamino)-1H-pyrazolo[3,4-b]pyridin-4-yloxy)-N-(4-methylpyridin-2-yl)benzamide] | 1 to 10 | > 10 | < 0.1 | 
2 | Cc1cc(NC(=O)c2cccc(Nc3ccnc4[nH]nc(N[C@@H]5CCCN(C(=O)C6CC6)C5)c34)c2)ccc1C(C)C [compound 127, 3-[(3-{[(3R)-1-cyclopropanecarbonylpiperidin-3-yl]amino}-1H-pyrazolo[3,4-b]pyridin-4-yl)amino]-N-[3-methyl-4-(propan-2-yl)phenyl]benzamide] | 1 to 10 | > 10 | 0.1 to 1 | 
3 | Cc1ccnc(NC(=O)c2ccc(Oc3ccnc4[nH]nc(N[C@@H]5CCCN(C(=O)c6ncc[nH]6)C5)c34)cc2)c1 [compound 242, (R)-4-(3-(1-(1H-imidazole-2-carbonyl)piperidin-3-ylamino)-1H-pyrazolo[3,4-b]pyridin-4-yloxy)-N-(4-methylpyridin-2-yl)benzamide] | 0.1 to 1 | > 10 | < 0.1 | 
4 | Cc1cc(NC(=O)c2cccc(Nc3ccnc4[nH]nc(N[C@@H]5CCCN(C(=O)c6ccc(F)cc6)C5)c34)c2)ccc1C(C)C [compound 130, 3-[(3-{[(3R)-1-(4-fluorobenzoyl)piperidin-3-yl]amino}-1H-pyrazolo[3,4-b]pyridin-4-yl)amino]-N-[3-methyl-4-(propan-2-yl)phenyl]benzamide] | > 10 | > 10 | 0.1 to 1 | 
5 | Cc1ccnc(NC(=O)c2ccc(Oc3ccnc4[nH]nc(N[C@@H]5CCCN(C(=O)c6ccccc6F)C5)c34)cc2)c1 [compound 248, (R)-4-(3-(1-(2-fluorobenzoyl)piperidin-3-ylamino)-1H-pyrazolo[3,4-b]pyridin-4-yloxy)-N-(4-methylpyridin-2-yl)benzamide] | 1 to 10 | > 10 | < 0.1 | 
6 | Cc1ccnc(NC(=O)c2ccc(Oc3ccnc4[nH]nc(N[C@@H]5CCCN(C(=O)C6(C)COC6)C5)c34)cc2)c1 [compound 86, 4-[(3-{[(3R)-1-(3-methyloxetane-3-carbonyl)piperidin-3-yl]amino}-1H-pyrazolo[3,4-b]pyridin-4-yl)oxy]-N-(4-methylpyridin-2-yl)benzamide] |  | > 10 | < 0.1 | 
7 | CCC(=O)N1CC[C@@H](Nc2n[nH]c3nccc(Oc4ccc(C(=O)Nc5nccc(=O)[nH]5)cc4)c23)C1 [compound 74, N-(6-oxo-1,6-dihydropyrimidin-2-yl)-4-[(3-{[(3R)-1-propanoylpyrrolidin-3-yl]amino}-1H-pyrazolo[3,4-b]pyridin-4-yl)oxy]benzamide] | > 10 |  | > 10 | > 10
8 | CN(C)C/C=C/C(=O)N1CC[C@@H](Nc2n[nH]c3nccc(Oc4ccc(Cl)cc4)c23)C1 [compound 3, (2E)-1-[(3R)-{[4-(4-chlorophenoxy)-1H-pyrazolo[3,4-b]pyridin-3-yl]amino}pyrrolidin-1-yl]-4-(dimethylamino)but-2-en-1-one] | > 10 |  | < 0.1 | 0.1 to 1
9 | CN(C(=O)/C=C/CN(C)C1CC1)c1cccc(Nc2n[nH]c3nccc(Oc4ccc(Oc5ccccc5)cc4)c23)c1 [compound 38] | 0.1 to 1 |  | < 0.1 | 0.1 to 1
10 | C=CC(=O)N1CC[C@@H](Nc2c[nH]c3nccc(Oc4ccc(Cl)cc4)c23)C1 [compound 7, 1-[(3R)-3-{[4-(4-chlorophenoxy)-1H-pyrrolo[2,3-b]pyridin-3-yl]amino}pyrrolidin-1-yl]prop-2-en-1-one] | 1 to 10 |  | < 0.1 | 1 to 10
11 | N#C/C(=C\C1CC1)C(=O)N1CC[C@@H](Nc2n[nH]c3nccc(Oc4ccc(Oc5ccccc5)cc4)c23)C1 [compound 18, (2E)-3-cyclopropyl-2-[(E)-(3R)-{[4-(4-phenoxyphenoxy)-1H-pyrazolo[3,4-b]pyridin-3-yl]amino}pyrrolidine-1-carbonyl]prop-2-enenitrile] | 0.1 to 1 |  | < 0.1 | < 0.1
12 | N#CCNC(=O)c1cc(Nc2n[nH]c3nccc(Oc4ccc(Oc5ccccc5)cc4)c23)ccn1 [compound 65] | < 0.1 |  | 0.1 to 1 | 0.1 to 1

The remaining lines, values ahead:

Row | IC50 (Lck) [µM] | IC50 (JAK3) [µM] | IC50 (Btk) [µM] | IC50 (EGFR) [µM] | Structure (SMILES)
13 | 1 to 10 | < 0.1 | < 0.1 |  | C=CC(=O)N1CCC[C@@H](Nc2n[nH]c3nccc(Nc4cccc(C(=O)Nc5ccc(C(C)C)c(C)c5)c4)c23)C1 [compound 129, N-[3-methyl-4-(propan-2-yl)phenyl]-3-[(3-{[(3R)-1-(prop-2-enoyl)piperidin-3-yl]amino}-1H-pyrazolo[3,4-b]pyridin-4-yl)amino]benzamide]
14 | 1 to 10 | > 10 | < 0.1 |  | Cc1ccnc(NC(=O)c2ccc(Oc3ccnc4[nH]nc(N[C@@H]5CCCN(C(=O)c6ccc(F)cc6)C5)c34)cc2)c1 [compound 243, (R)-4-(3-(1-(4-fluorobenzoyl)piperidin-3-ylamino)-1H-pyrazolo[3,4-b]pyridin-4-yloxy)-N-(4-methylpyridin-2-yl)benzamide]
15 | 1 to 10 | > 10 | < 0.1 |  | Cc1ccc(C(=O)N2CCC[C@@H](Nc3n[nH]c4nccc(Oc5ccc(C(=O)Nc6cc(C)ccn6)cc5)c34)C2)cc1 [compound 245, (R)-4-(3-(1-(4-methylbenzoyl)piperidin-3-ylamino)-1H-pyrazolo[3,4-b]pyridin-4-yloxy)-N-(4-methylpyridin-2-yl)benzamide]
16 | 0.1 to 1 |  | 0.1 to 1 | 0.1 to 1 | CNC(=O)/C(F)=C/c1cccc(Nc2n[nH]c3nccc(Oc4ccc(Oc5ccccc5)cc4)c23)c1 [compound 31, (2Z)-2-fluoro-N-methyl-3-(3-{[4-(4-phenoxyphenoxy)-1H-pyrazolo[3,4-b]pyridin-3-yl]amino}phenyl)prop-2-enamide]
17 | 0.1 to 1 |  | < 0.1 | 1 to 10 | N#Cc1ccnc(NC(=O)c2ccc(Oc3ccnc4[nH]nc(NC5CCOCC5)c34)cc2)c1 [compound 77, N-(4-cyanopyridin-2-yl)-4-({3-[(oxan-4-yl)amino]-1H-pyrazolo[3,4-b]pyridin-4-yl}oxy)benzamide]
18 | < 0.1 |  | < 0.1 | 0.1 to 1 | N#CCC(=O)N1CC[C@@H](Nc2n[nH]c3nccc(Oc4ccc(Oc5ccccc5)cc4)c23)C1 [compound 44]
19 | 0.1 to 1 |  | < 0.1 | < 0.1 | CN(C)C/C=C/C(=O)N1CC[C@@H](Oc2n[nH]c3nccc(Nc4cccc(Oc5ccccc5)c4)c23)C1 [compound 17, (2E)-4-(dimethylamino)-1-[(3R)-3-({4-[(3-phenoxyphenyl)amino]-1H-pyrazolo[3,4-b]pyridin-3-yl}oxy)pyrrolidin-1-yl]but-2-en-1-one]
20 | 1 to 10 |  | < 0.1 | 1 to 10 | CCC(=O)N1CC[C@@H](Nc2n[nH]c3nccc(Oc4ccc(C(=O)Nc5ncc(C)s5)cc4)c23)C1 [compound 190]
21 |  | 1 to 10 |  |  | CCC(=O)N1CC[C@@H](Nc2n[nH]c3nccc(Oc4ccc(C(=O)Nc5ncc(C)s5)cc4)c23)C1 [compound 72, N-(5-methyl-1,3-thiazol-2-yl)-4-[(3-{[(3R)-1-propanoylpyrrolidin-3-yl]amino}-1H-pyrazolo[3,4-b]pyridin-4-yl)oxy]benzamide]
22 | < 0.1 |  | < 0.1 | < 0.1 | CN(C/C=C/C(=O)N1CC[C@@H](Oc2n[nH]c3nccc(Oc4ccc(Oc5ccccc5)cc4)c23)C1)C1CC1 [compound 22, (2E)-4-[cyclopropyl(methyl)amino]-1-[(3R)-3-{[4-(4-phenoxyphenoxy)-1H-pyrazolo[3,4-b]pyridin-3-yl]oxy}pyrrolidin-1-yl]but-2-en-1-one]
